Assay results as given in patent US6495514B1, “Method for reducing inflammation and inducing an analgesic effect and compounds thereof” (Mercer University, priority 1998, dated 2002).
Marks after values point to notes of the source that are not given here.

Assays:
[1] = molecular target: T1, peptidylglycine α-monooxygenase (PAM) (Rattus norvegicus, UniProt P14925); assay: Serum PAM activity after PBA dosing in rats; assay type: in vivo; settings: for inhibition at 500 mg/kg: rat, sc
T1 construct: 50 μl of serum sample (enzyme source) was added to 200 μl of the assay mixture; from tissue; host or cells: rat serum (tail vein blood)
T1 sequence (P14925 36-976): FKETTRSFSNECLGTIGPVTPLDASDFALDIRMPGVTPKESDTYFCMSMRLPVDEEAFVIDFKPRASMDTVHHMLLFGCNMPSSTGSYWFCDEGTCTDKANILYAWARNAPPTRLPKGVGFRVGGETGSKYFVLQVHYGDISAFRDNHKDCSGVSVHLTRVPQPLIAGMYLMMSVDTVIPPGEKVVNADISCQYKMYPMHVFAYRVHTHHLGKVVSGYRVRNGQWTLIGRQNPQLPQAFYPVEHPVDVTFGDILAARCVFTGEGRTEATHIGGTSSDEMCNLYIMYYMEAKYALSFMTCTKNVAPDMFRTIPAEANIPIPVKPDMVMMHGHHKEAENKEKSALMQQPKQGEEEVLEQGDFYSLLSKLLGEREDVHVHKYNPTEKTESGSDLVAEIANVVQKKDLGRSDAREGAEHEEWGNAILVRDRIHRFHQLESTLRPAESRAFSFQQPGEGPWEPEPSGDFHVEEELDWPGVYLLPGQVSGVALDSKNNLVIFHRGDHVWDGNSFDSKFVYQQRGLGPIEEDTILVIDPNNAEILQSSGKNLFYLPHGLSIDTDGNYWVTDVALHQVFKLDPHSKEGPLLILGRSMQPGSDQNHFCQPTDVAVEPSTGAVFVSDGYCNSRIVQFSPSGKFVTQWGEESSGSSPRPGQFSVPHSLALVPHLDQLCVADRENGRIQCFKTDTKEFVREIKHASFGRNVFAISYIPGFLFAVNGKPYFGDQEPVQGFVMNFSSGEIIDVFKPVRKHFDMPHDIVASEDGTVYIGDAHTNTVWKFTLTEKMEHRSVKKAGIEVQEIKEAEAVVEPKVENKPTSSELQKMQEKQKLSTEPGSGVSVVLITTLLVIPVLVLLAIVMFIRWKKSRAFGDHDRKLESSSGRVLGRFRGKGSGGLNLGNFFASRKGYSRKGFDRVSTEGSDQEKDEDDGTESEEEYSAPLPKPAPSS
Description: (§1) Male rats were fasted overnight and anesthetized with ether to obtain blood samples for measuring PAM and PGL activity in serum. Blood (0.5 ml) was collected from the tail vein at different times and spun at 14,000×g for 5 minutes. Serum was collected and stored at −70° C. until assayed. PAM activity was determined based on the procedure disclosed in Katopodis et al. (Biochemistry 30, 6189-6194, 1991). Briefly, 50 μl of serum sample (enzyme source) was added to 200 μl of the assay mixture which contained tripeptide TNP-D-Tyr-Val-Gly as the enzyme substrate (40 μM), copper sulfate (15 μM), L-ascorbate (4 mM) and catalase (1 mg/ml) in MES buffer (100 mM, pH 6.5). After a 30 minute incubation period at 37° C., an aliquot (90 μl) was quenched with 10 μl of HClO4 (3M) and centrifuged at 14,000×g for 5 minutes. A 20 μl aliquot was removed and used to assay for product using reverse phase HPLC at 344 nm on a C8 column with a mobile phase of 56% water/0.1% trifluoroacetic acid/44% acetonitrile at a flow rate of 1.5 mL/min. In this manner, both TNP-D-Tyr-Val-NH2 as well as the TNP-D-Tyr-Val-α-hydroxyGly were quantitated simultaneously. PGL activity was assayed by measuring the conversion of α-hydroxyhippuric acid to benzamide as disclosed in Katopodis and May (Biochemistry 29, 4541-4548, 1990). Briefly, 50 μl of the serum sample was added to 200 μl of a 100 mM MES buffer solution (pH 6.5) containing 2 mM of the enzyme substrate. After incubation for 30 minutes at 37° C., an aliquot of the assay mixture was quenched with 3 M HClO4, centrifuged at 14,000×g and 20 μl used to analyze for benzamide product by HPLC using a C8 reverse phase column. Product detection was performed at 225 nm using a mobile phase of 80% water/0.1% trifluoroacetic acid/20% acetonitrile at a flow rate of 1.5 mL/min. Enzyme activity was expressed as milliunits per milliliter which is the amount of enzyme required to produce one nanomole of product.

[2] = system: phenyl-p-quinone-induced writhing; assay: Phenyl-p-quinone-induced writhing; assay type: in vivo, mice
Description: (§2) The effects of PBA on the perception of pain was evaluated using several different animal models. The spinally-mediated tail-flick response to heat in fasted rats (250-290 g) was used by measuring the withdrawal latency following immersion of the rodent's tail (2″) into hot water (50° C.). PBA at several different dose levels was administered subcutaneously and the time to tail withdrawal was measured at 0, 15, 30 and 60 minutes post-drug administration. The analgesic effects of PBA were also evaluated in fasted mice following the injection of either phenyl-p-quinone or acetylcholine. Male, ND4 Swiss mice (15-20 g) were dosed subcutaneously with PBA or saline followed immediately by the injection of phenyl-p-quinone (2 mg/kg i.p.). After 5 minutes, the number of writhes (abdominal constrictions along with contortion of the trunk and extension of the hindlimbs) was counted over the next 10 minutes. When acetylcholine (6 mg/kg i.p.) was used as the noxious agent, PBA was administered subcutaneously 15 minutes before the administration of the algesic agent. The number of writhes produced was counted over the last 5 minutes following the algesic agent.

carrageenan edema = assay: Carrageenan-induced hind paw edema; assay type: in vivo, rat; settings: for inhibition of hind paw edema: 2 hours post-administration
Description: Carrageenan, bradykinin and serotonin edemas were induced in anesthetized, male Sprague-Dawley rats (150-175 g) by injecting 0.5 mg (0.05 ml) of carrageenan, 50 μg (0.1 ml) of bradykinin and 20 μg (0.1 ml) of serotonin, respectively, into the subplantar region of the left hind paws the contralateral hind paws received saline only. Hind paw volumes (edema) were measured plethysmographically by displacement of mercury at 0, 1, 2, 3, 4 and 6 hours post administration of carrageenan, 30 minutes after bradykinin and 1 hour after serotonin. Swelling was determined by subtracting the volume (ml) of the right hind . paw from that of the left. […] In those experiments in which PBA was delivered continuously to rats over a 7 day period prior to the administration of carrageenan, ALZET osmotic pumps (Palo Alto, Calif.) were filled with drug and implanted subcutaneously between the scapulae into anesthetized rats.

[3] = molecular target: T2, peptidylamidoglycolate lyase (PGL) (Rattus norvegicus, UniProt P14925); assay: Serum PGL activity after PBA dosing in rats; assay type: in vivo; settings: 500 mg/kg s.c., 24 hour observation period
T2 construct: from tissue; host or cells: rat serum (tail vein blood)
T2 sequence (P14925 36-976): T1 sequence (P14925 36-976)
Description: as §1, with “PGL activity was assayed by measuring the conversion of α-hydroxyhippuric acid to benzamide as disclosed in Katopodis and May (Biochemistry 29, 4541-4548, 1990). Briefly, 50 μl of the serum sample was added to 200 μl of a 100 mM MES buffer solution (pH 6.5) containing 2 mM of the enzyme substrate. After incubation for 30 minutes at 37° C., an aliquot of the assay mixture was quenched with 3 M HClO4, centrifuged at 14,000×g and 20 μl used to analyze for benzamide product by HPLC using a C8 reverse phase column. Product detection was performed at 225 nm using a mobile phase of 80% water/0.1% trifluoroacetic acid/20% acetonitrile at a flow rate of 1.5 mL/min.” left out

[4] = system: acetylcholine-induced writhing; assay: Acetylcholine-induced writhing; assay type: in vivo, mice
Description: as §2

tail withdrawal latency = assay: Tail-flick response to heat (50° C. water); assay type: in vivo, rat; settings: s.c., doses up to 750 mg/kg; 15, 30 and 60 minutes post-drug
Description: as §2

serotonin edema = assay: Serotonin-induced hind paw edema; assay type: in vivo, rat
Description: (§3) Carrageenan, bradykinin and serotonin edemas were induced in anesthetized, male Sprague-Dawley rats (150-175 g) by injecting 0.5 mg (0.05 ml) of carrageenan, 50 μg (0.1 ml) of bradykinin and 20 μg (0.1 ml) of serotonin, respectively, into the subplantar region of the left hind paws the contralateral hind paws received saline only. Hind paw volumes (edema) were measured plethysmographically by displacement of mercury at 0, 1, 2, 3, 4 and 6 hours post administration of carrageenan, 30 minutes after bradykinin and 1 hour after serotonin. Swelling was determined by subtracting the volume (ml) of the right hind . paw from that of the left. PBA was administered subcutaneously 30 minutes before the administration of carrageenan and serotonin and one hour before bradykinin. In those experiments in which PBA was delivered continuously to rats over a 7 day period prior to the administration of carrageenan, ALZET osmotic pumps (Palo Alto, Calif.) were filled with drug and implanted subcutaneously between the scapulae into anesthetized rats.

bradykinin edema = assay: Bradykinin-induced hind paw edema; assay type: in vivo, rat
Description: as §3

substance P (SP) = assay: SP levels in hind paw tissue (RIA); assay type: in vivo, rat; settings: 75 mg/kg/hr for 7 days, prior to carrageenan (time 0)
Description: The effects of PBA on levels of SP were evaluated using a modification of a method previously disclosed in Ahmed et al. (Peptides 15, 317-322, 1994). Briefly, at different times following the administration of carrageenan, hind paw ankle joints were removed, immediately frozen on dry ice and stored at −80° C. until assayed for SP. After the frozen sample was weighed, it was boiled for 7 minutes as a 10% w/v solution of 2M acetic acid in 4% EDTA, pH 3.5, cut into small pieces and boiled for an additional 7 minutes. Samples were then homogenized for 60 seconds in a Brinkmann Polytron (Westbury, N.Y.), sonicated for 30 seconds and centrifuged at 3000×g for 20 minutes. Supernatants were lyophilized and then diluted in radioimmunoassay (RIA) buffer prior to analysis. SP levels were determined from these samples by using a commercially available RIA kit (INCSTAR, Stillwater, Minn.). Initial experiments conducted to insure the specificity of the substance P antibody for SP found the cross-reactivity for the glycine-extended precursor to be 1.7% at concentrations up to 100 nanograms/ml.

[5] = dose that produced significant inhibition of carrageenan edema

In the case of `O=C(O)C/C=C/c1ccccc1` [PBA, trans-4-phenyl-3-butenoic acid], the “serum PAM activity compared to controls” value ([1]; 75 mg/kg/hr for 7 days, prior to carrageenan (time 0)) is reported as “significantly reduced”, the “serum PAM activity vs control” value ([1]; 500 mg/kg s.c. single dose, after 24 hours) is reported as “not significantly different from control values” and the “dose dependence of inhibition of serum PAM activity” value ([1]; 50, 150 and 500 mg/kg, normal rats) is reported as “dose-related”. The “sustained reduction in serum PAM activity” value ([1]; continuous release 50 to 100 mg/kg/hr s.c. via osmotic pumps, throughout 7 day dosing period) was > 75%, the inhibition at 500 mg/kg ([1]; 500 mg/kg s.c. single dose, by 6 hours) was 43% and the inhibition at 500 mg/kg ([1]; 500 mg/kg s.c. single dose, conscious rats, within 1 hour, remained during first 3 hours) was > 90%. For the same compound, the “analgesic effect in writhing assay” value ([2]; 100 mg/kg dose) was “significant analgesic effect”, the inhibition of writhing ([2]; 250 mg/kg s.c.) was “greater than 85%” and the “inhibition of carrageenan edema” value (carrageenan edema; 75 mg/kg/hr for 1 week before carrageenan, each time period) was “significant inhibition”. For the same compound, the “activity on carrageenan edema” value (carrageenan edema; 100 mg/kg dose) was “did not show any activity”, the “inhibition of hind paw swelling” value (carrageenan edema; 100 mg/kg, administered 2 hours after induction of inflammation) was “only effective at hour 3” and the “inhibition of hind paw edema” value (carrageenan edema; 250 mg/kg s.c. 30 minutes before carrageenan) was 43%. For the same compound, the “inhibition of hind paw swelling” value (carrageenan edema; 250 mg/kg, administered 2 hours after induction, up to 6 hours post-phlogistic agent) was “significant inhibition of hind paw swelling”, the “inhibition of hind paw edema” value (carrageenan edema; 500 mg/kg s.c. 30 minutes before carrageenan) was 67% and the “inhibition of hind paw swelling” value (carrageenan edema; 500 mg/kg, administered 2 hours after induction, up to 6 hours post-phlogistic agent) was “significant inhibition of hind paw swelling”. For the same compound, the “Inhibition (%)” value (carrageenan edema; Carrageenan, PBA s.c. 30 minutes before, measured 2 hours after, P < .05) was 66.7^b %, the “Hind Paw Volume (mL ± S.E.M.)” value (carrageenan edema; Carrageenan, PBA s.c. 30 minutes before, measured 2 hours after, n = 8) was 0.31 ± 0.07 mL and the “dose dependence of inhibition of hind paw edema” value (carrageenan edema; s.c. 30 minutes before carrageenan, at 2 and 3 hours post-administration) was “dose-related inhibition”. For the same compound, the “effect on serum PGL activity” value [3] was “no effect”, the “analgesic effect in writhing assay” value ([4]; 100 mg/kg dose) was “significant analgesic effect” and the ED50 ([4]; Mus musculus, sc, s.c. 15 minutes before acetylcholine, percentage of animals per group that writhed (all or none)) was 105 mg/kg. For the same compound, the “effect on time to tail withdrawal” value (tail withdrawal latency) was “did not have any effect”, the “Inhibition (%)” value (serotonin edema; Serotonin 20 μg, PBA s.c. 30 minutes before, measured 1 hour after) was 18.5% and the “Hind Paw Volume (mL ± S.E.M.)” value (serotonin edema; Serotonin 20 μg, PBA s.c. 30 minutes before, measured 1 hour after, n = 8) was 0.66 ± 0.03 mL. The “inhibitory activity on edema produced by serotonin” value (serotonin edema; [5]) was “lacked significant inhibitory activity”, the “Inhibition (%)” value (bradykinin edema; Bradykinin 50 μg, PBA s.c. 1 hour before, measured 30 minutes after) was 25.6% and the “Hind Paw Volume (mL ± S.E.M.)” value (bradykinin edema; Bradykinin 50 μg, PBA s.c. 1 hour before, measured 30 minutes after, n = 8) was 0.29 ± 0.04 mL. The “inhibitory activity on edema produced by bradykinin” value (bradykinin edema; [5]) was “lacked significant inhibitory activity” and the “SP levels in hind paw tissue compared to controls” value (substance P (SP)) was “significantly reduced”.
